Assay results from patent US9580465B2, “Tissue protective peptides and peptide analogs for preventing and treating diseases and disorders associated with tissue damage” (ARAIM PHARMACEUTICALS, INC., priority 2008, dated 2017).
Where “and” joins values, the source holds several entries; their conditions need not be identical. Identical values can stand only once. Entries after “also recorded” stand apart in the source; their conditions may differ. Square brackets hold non-standard residues; d marks the D form. Ends that are not written are not given here.

How the values were obtained:
pressure ulcer = assay: Decubitus ulcer (pressure sore) assay; type: in vivo, Sprauge-Dawley rats; details: 30 μg/kg sc daily; compared with all groups; FIG. 20
Procedure: A decubitus ulcer (pressure sore) assay was performed on 24 adult Sprauge-Dawley rats in accordance with the disclosure of Pierce et al., Selective A2A adenosine receptor activation reduces skin pressure ulcer formation and inflammation, Am J Physiol Heart Circ Physiol 281:67-74, 2001. Briefly, a ferromagnetic steel plate was implanted under a dorsal region of the rats skin. A rectangular permanent magnet was applied to the area of the skin under which the plate was implanted in order to compress the skin between the plate and the magnet. This compression reduced the flow of blood to the skin causing ischemia. The rats were subjected to a cycle of ischemia-reperfusion (2 hours ischemia with a 0.5 hour reperfusion) for a 72-hour period. […] Daily the area of the wound on each rat was measured for a period of 12 days.

9 L gliosarcoma cells = assay: 9 L gliosarcoma implantation model, delayed treatment; type: in vivo, CD Fisher rats; details: 25 nmole/kg i.p. daily starting two weeks after implantation, three weeks, FIG. 13, 14
Procedure: In accordance with the accordance with the protocol of Lampson et al. Cancer Res. 53:176-82:1993 described above, CD Fisher rats were implanted with 9 L gliosarcoma cells transfected with the LacZ gene by use of a Hamilton syringe. 100,000 cells in 10 microliters were injected into the right caudate.
ID with a short plasma half life, another receiving Peptide IW (pegylated form of Peptide IC) and the third group received saline. Peptides were given at a dose of 25 nmole/kg body weight. Three weeks later, the animals were sacrificed and serial 1 mm thick coronal sections cut through the brain and incubated with 5-bromo-4-chloro-3-indolyl-[beta]-D-galactopyranoside (Xgal). Tumor cells (containing the LacZ gene) metabolized Xgal into a dark blue stain, localizing the extent of tumor. High resolution digital images were obtained and the areas stained blue determined using planimetric methodology. Data is expressed as total area of tumor infiltration.

histamine = assay: Histamine induced wheal formation, peptide given at time of challenge; type: in vivo, Sprague-Dawley rats; details: 30 μg/kg at time of histamine challenge
Procedure: Under isoflurane anesthesia, 12 Sprague-Dawley rats' abdomens were shaved and depilated. Each rat was then injected intravenously (via internal jugular) with a dilute solution of Evans Blue (30 mg/ml in saline, 1 ml/kg bw). After 5 minutes, 6 small doses of histamine (Histamine diphosphate, 20 microliters administered intradermally) in a rectangular pattern on each rat's abdomen. After fifteen minutes, when the wheal reaches its maximum size the wheal is photographed and the blister area was determined by digital planimetry. To test the efficacy of various peptides, the peptide of interest was administered to the rats intravenously shortly after the histamine injection.
Rats received either saline, Peptide IY (30 μg/kg), Peptide ID (30 μg/kg), or Peptide IW (30 μg/kg) at time of histamine challenge.
Rats received either saline, peptide JA (30 μg/kg), peptide IZ (30 μg/kg), peptide IW (30 μg/kg) or peptide ID (30 μg/kg) at time of histamine challenge.

bilateral renal ischemia = assay: Bilateral renal ischemia assay; type: in vivo, C57/BL6 mice
Procedure: Sixty male C57/BL6 mice (˜25 g; Charles River Laboratories) were anesthetized with ketamine (150 mg/kg) and xylazine (15 mg/kg) i.p. Each animal was placed on a homeothermic blanket set at 37° C., and after a mid-line laparotomy, the renal pedicles were clamped for 30 minutes using nontraumatic vascular clamps. Peptide ID was administered at the indicated dose via i.p. Injection at 1 minute, 6 hours, and 12 hours after reperfusion. In a single dose study, the mice received a control (PBS), 1 μg/kg of Peptide IG at 1 minute, 1 μg/kg of Peptide IG at 30 minutes, 1 μg/kg of Peptide ID at 6 hours, or 10 μg/kg of Peptide ID at 6 hours (12 mice per group). In a multiple dose study, the mice received either multiple doses of a control (PBS), 0.1 μg/kg of Peptide ID, 1 μg/kg of Peptide ID, or 10 μg/kg of Peptide ID at 1 minute, 6 hours and 12 hours into reperfusion.
Twenty-four hours later, mice were reanesthetized and blood was obtained by cardiac puncture. Plasma urea and creatine were used as indicators of renal dysfunction and aspartate aminotransferase was used as an indicator of renal injury. Data were analyzed using ANOVA followed by Dunnett's post hoc test comparison.

[1] = test system: middle cerebral artery occlusion; assay: Middle cerebral artery occlusion model; type: in vivo, Sprague Dawley rats; details: after MCAO; 2 μg/kg bw i.v. upon reperfusion, then three injections at 2-hour intervals; FIG. 5
Procedure: Sprague Dawley rats (8 per group) are subjected to the following MCAO protocol Surgery was performed in accordance with the teachings of Brines et al, 2000, PNAS USA 97:10526-10531 (hereby incorporated by reference in its entirety. Briefly, the rats are anesthetized with chloral hydrate (400 mg/kg-bw, i.p.), the carotid arteries were visualized, and the right carotid was occluded by two sutures and severed. A burr hole adjacent and rostral to the right orbit allowed visualization of the middle cerebral artery (“MCA”), which was cauterized distal to the rhinal artery. To produce a penumbra (border zone) surrounding this fixed MCA lesion, the contralateral carotid artery was occluded for 1 hour by using […] provided by a fine forceps and then re-opened.
The rats were administered saline, Peptide ID as a single i.v. dose (2 μg/kg bw), or Peptide IX, […], SEQ ID NO: 301), a scrambled version of Peptide IC, SEQ ID NO: 281, as a single Lv. dose (2 μg/kg bw) upon reperfusion, followed by three additional injections at 2-hour intervals. For assessment of injury, rats are subjected to behavioral testing or the volume of the lesion is determined by tetrazolium staining of brain sections performed 24 hours post surgery in accordance with the previously noted protocol.
The volume of the lesion was then determined by tetrazolium staining of brain sections performed 24 hours post surgery.
Rats were also tested in a foot fault behavioral protocol. Rats were tested on an elevated stainless steel grid floor 30 cm×30 cm with grid size of 30 mm according to the protocol of Markgraf et al., 1992, Brain Research 575:238-246 (hereby incorporated by reference in its entirety). When placed on the grid, a rat would attempt to move around and occasionally place a foot, rather than on the grid, through a grid opening (“foot fault”). The number of foot faults was measured for a 1 minute period.
The number of foot faults is indicative of the cognitive impairment of the rats due to the MCAO, the fewer the number of foot faults the less cognitive impairment.

[2] = test system: cisplatin-induced nephropathy; assay: Cisplatin induced nephropathy; type: in vivo, rats; details: CDDT 2 mg/kg i.p. twice a week; peptide 0.4 μg/kg three times a week for 5 weeks; FIG. 10
Procedure: Cancer chemotherapeutic agents such as cisplatin (CDDT) are known to induce renal injury among other toxicities. The ability of Peptide IC to protect rats form cisplatin-induced nephropathy was evaluated by administering 2 mg/kg CDDT intraperitoneally, twice a week for 5 weeks. Peptide IC was simultaneously administered at a dose of 0.4 μg/kg, three times a week for 5 weeks. Renal function was evaluated by measuring the volume of urine production.

[3] = test system: cisplatin induced neuropathy; assay: Cisplatin induced peripheral neuropathy (hotplate latency); type: in vivo, rats; details: CDDT 2 mg/kg i.p. twice a week; peptide 0.4 μg/kg three times a week for 5 weeks; FIG. 11
Procedure: Also, CDDT is known to induce peripheral neuropathy, among other toxicities. Following the experimental design described above for renal function, the ability of Peptide IC to protect against peripheral neuropathy was also evaluated. 2 mg/kg CDDT was administered intraperitoneally, twice a week for 5 weeks. Peptide IC was simultaneously administered at a dose of 0.4 μg/kg, three times a week for 5 weeks. Neuropathy was evaluated by hotplate latency, the delay period between contact of the rat's foot to a warm surface, and the retraction of the foot.

NAIIKNAYKKG (Beta endorphin derived Peptide IG) [beta endorphin region]
wound (ulcer) size (area) (pressure ulcer): smallest wound size

PEG-QEQLERALNSS (XEQLERALNSS; PEG; Peptide IW) [pegylated form of Peptide IC, extended half-life peptide]
tumor size (total area of tumor infiltration) (9 L gliosarcoma cells): marked reduction in tumor size; also recorded: exhibited the best outcomes; also recorded: reduction in size of the tumor equivalent to that achieved by immediate treatment with Peptide ID | tumor size (total area of tumor infiltration) (9 L gliosarcoma cells; listed as Peptide 1W): reduced the size of tumor | wheal area (lesion area) (histamine; FIG. 18): ~0.3 cm^2

GSWQRSLQDTE (Glucagon derived Peptide IH) [glucagon region]
creatinine, urea and aspartate aminotransferase (biochemical markers of renal dysfunction) (bilateral renal ischemia; multiple doses 1 μg/kg at 1 minute, 6 hours and 12 hours into reperfusion, FIG. 7): reduction in these biochemical markers of renal dysfunction | creatinine, urea and aspartate aminotransferase (biochemical markers of renal dysfunction) (bilateral renal ischemia; multiple doses 10 μg/kg at 1 minute, 6 hours and 12 hours into reperfusion, FIG. 7): reduction in these biochemical markers of renal dysfunction | creatinine, urea and aspartate aminotransferase (biochemical markers of renal dysfunction) (bilateral renal ischemia; single dose 1 μg/kg at 6 hours into reperfusion, 24 hrs of reperfusion, FIG. 6): reduction in these biochemical markers of renal dysfunction | creatinine, urea and aspartate aminotransferase (biochemical markers of renal dysfunction) (bilateral renal ischemia; single dose 10 μg/kg at 6 hours into reperfusion, 24 hrs of reperfusion, FIG. 6): reduction in these biochemical markers of renal dysfunction

GLpLSEARNQSEL [Peptide IY, reference compound]
anti-inflammatory activity (histamine; FIG. 18): did not exhibit anti-inflammatory activity | wheal area (lesion area) (histamine; FIG. 18): about 0.6 cm^2

SSNLARELQEQ ([dS][dS][dN][dL][dA][dR][dE][dL][dQ][dE][dQ]; also: retro-inverso) [Peptide IZ, Retro Inverso Peptide IC]
wheal area (lesion area) (histamine; FIG. 19): ~0.4 cm^2 and 0.35 cm^2

LSEQARNQSEL [Peptide IX, scrambled version of Peptide IC; called Peptide JA in b476, reference compound]
number of foot faults in 1 minute period [1]: 20.1±2.1 foot faults | wheal area (lesion area) (histamine; FIG. 19): about 0.6 cm^2

QEQLERALNSS (Helix B amino acids derived Peptide IC) [exterior-presenting amino acids of helix B of EPO]
volume of urine production (renal function) [2]: protected against renal dysfunction due to CDDT; also recorded: substantially like that of the control (PBS) group | hotplate latency (time to withdraw paw) [3]: prevented the appearance of peripheral neuropathy; also recorded: substantially similar to the control group (PBS)
